Laboratory results taken from patent publication US20070021509A1, “Phosphate transport inhibitors” (priority 2001, published 2007).

What follows are compounds tested on phosphate uptake by rabbit intestinal Brush Border Membrane Vesicles (BBMV) (assay: 33PO4 uptake in rabbit intestinal BBMV (HTS), phosphate transporter inhibition in vitro). Details: Table 2, phosphate uptake, read-out: IC50.
Type: biochemical
Method: The following example outlines the procedures required for in vitro measurement of the inhibition of phosphate uptake by rabbit intestinal Brush Border Membrane Vesicles (BBMV).
Rabbit Intestinal Brush Border Membrane Vesicles (BBMV) were isolated from mucosal scrapings of the upper small intestine (duodenum) of male New Zealand White rabbits. The scrapings were divided into 2 g aliquots in cryopreservation vials, frozen in liquid nitrogen, and stored at −80° C.
The following procedure was performed for each 2 g sample of BBMV mucosal scraping. Buffer volumes and container sizes were adjusted appropriately for the number of 2 g samples used. The entire preparation was performed on ice, unless otherwise stated.
Mucosal scrapings (2 g per tube) were thawed in a 37° C. water bath for 3 minutes and then placed on ice. The scrapings were suspended with a total of 7.5 ml of 300 MET, and transferred to a 250 mL Corning tube on ice. To the suspension was added 30 mL cold (4° C.) deionized water (dH20). The suspension was homogenized with a tissue homogenizer (Polytron) on high speed for 2 minutes. A stir bar and MgCl2 (81.3 mg) was added. The suspension was mixed well by inverting the closed tube. The suspension was stirred on ice, ensuring that a good vortex is achieved with the stir bar, for 40 minutes. The suspension was transferred to a chilled centrifuge tube and spun at 4000×g for 15 minutes. The supernatant was transferred to a new chilled centrifuge tube and spun at 32000×g for 30 minutes. The supernatant was discarded and the pellet was re-suspended with 34 mL cold 60 MET. The suspension was homogenized with a Dounce homogenizer with 8 strokes. The suspension was transferred to a fresh 250 mL Corning tube. A stir bar and 69.1 mg MgCl2 were added. The suspension was stirred well on ice for 10 minutes. The suspension was transferred to a chilled centrifuge tube and spun at 4000×g for 15 minutes. The supernatant was transferred to a new chilled centrifuge tube and spun at 32000×g for 30 minutes. The supernatant was discarded. At this stage, the preparation could be continued or this pellet (P4) could be frozen in liquid nitrogen and stored at −80° C. When needed, this pellet could be allowed to thaw at room temperature for 5 minutes. Continuing the preparation, the pellet was re-suspended with 34 mL cold 280 MH. The suspension was homogenized in a Dounce homogenize with 8 strokes. The suspension was transferred to a new chilled centrifuge tube and spun at 32000×g for 30 minutes. The supernatant was discarded. To the pellet was added 500 μL 280 MH and the pellet was re-suspended very carefully with a 1 mL tuberculin syringe with a 25-gauge needle with care not to create bubbles. Once the entire pellet was suspended, the suspension was transferred to a chilled 1.5 mL microfuge tube. The suspension was evenly dispersed by bringing the suspension up into the syringe through the 25-gauge needle, and back out again 8 times with care not to create bubbles. The total protein concentration was determined by performing a Bradford Protein Assay. Using that value, the BBMV were diluted with 280 MH to reach approximately 0.5-2.0 mg/mL. The solution was used as soon as possible for uptake studies.
The following experiment was performed using a Beckman Multimek 96-tip robotic pipettor. The following outlines the preparation required to screen one 96-well plate of compounds. However, multiple plates could be screened in one experiment.
To the “Uptake Buffers” was added ^33PO4 to reach 200,000 CPM/19 μL. The buffer solutions were stored at room temperature. The following control solutions were prepared and placed into appropriate wells of a polypropylene, 96-well V-bottom plate (“Hot Stock Plate”):
a. Maximum activity (MAX)−Na Uptake buffer+^33PO4 at 200,000 CPM/19 μL
b. Midline activity (MID)−MAX+100 μM KH2PO4, pH 7.4
c. Minimum activity (MIN)− K Uptake buffer+^33PO4 at 200,000 CPM/19 μL

`O=C(Nc1cccc(Br)c1)c1cc(Br)ccc1NS(=O)(=O)c1ccc(OC(F)(F)F)cc1` [Compound 72] and `O=C(Nc1cccc(Cl)c1)c1cc(Br)ccc1NS(=O)(=O)c1ccc(OC(F)(F)F)cc1` [Compound 78] fall in the same range of IC50: 101 to 500 µM for the first, 101 to 500 µM for the second.

`O=C(Nc1ccc(-c2ccccc2)cc1)c1cc(Br)ccc1NS(=O)(=O)c1ccc(OC(F)(F)F)cc1` [Compound 73] and `O=C(Nc1ccc(Oc2ccccc2)cc1)c1cc(Br)ccc1NS(=O)(=O)c1ccc(OC(F)(F)F)cc1` [Compound 74] fall in the same range of IC50: 101 to 500 µM for the first, 101 to 500 µM for the second.

`O=C(NC1CCCCC1)c1cc(Br)ccc1NS(=O)(=O)c1ccc(OC(F)(F)F)cc1` [Compound 75] and `O=C(NC1CCCc2ccccc21)c1cc(Br)ccc1NS(=O)(=O)c1ccc(OC(F)(F)F)cc1` (centres unmarked) [Compound 76] fall in the same range of IC50: 101 to 500 µM for the first, 101 to 500 µM for the second.

First: COc1ccc(CNC(=O)c2cc(Br)ccc2NS(=O)(=O)c2ccc(OC(F)(F)F)cc2)cc1 [Compound 77]
Second: Cc1ccc(CNC(=O)c2cc(Br)ccc2NS(=O)(=O)c2ccc(OC(F)(F)F)cc2)cc1 [Compound 82]
The IC50 of the first is lower: 101 to 500 µM for the first, 501 to 1000 µM for the second.

First: O=C(Nc1ccc(Cl)cc1Cl)c1cc(Br)ccc1NS(=O)(=O)c1ccc(OC(F)(F)F)cc1 [Compound 79]
Second: O=C(Nc1cc(Cl)ccc1Cl)c1cc(Br)ccc1NS(=O)(=O)c1ccc(OC(F)(F)F)cc1 [Compound 80]
The IC50 of the first is lower: 101 to 500 µM for the first, 501 to 1000 µM for the second.

`CCCCCCCCCCc1ccc(NC(=O)c2cc(Br)ccc2NS(=O)(=O)c2ccc(OC(F)(F)F)cc2)cc1` [Compound 81] and `Cc1c(Cl)cccc1NC(=O)c1cc(Br)ccc1NS(=O)(=O)c1ccc(OC(F)(F)F)cc1` [Compound 83] fall in the same range of IC50: 501 to 1000 µM for the first, 501 to 1000 µM for the second.

First: Cc1cc(Br)ccc1NC(=O)c1cc(Br)ccc1NS(=O)(=O)c1ccc(OC(F)(F)F)cc1 [Compound 84]
Second: Cc1ccccc1NC(=O)c1cc(Br)ccc1NS(=O)(=O)c1ccc(Cl)cc1 [Compound 94]
The IC50 of the first is lower: 1000 to 1500 µM for the first, greater than 1500 µM for the second. The first is the more potent here.

`O=C(Nc1ccc(Cl)cc1Cl)c1cc(Br)ccc1NS(=O)(=O)c1ccc(Cl)cc1` [Compound 85] and `O=C(Nc1cc(Cl)ccc1Cl)c1cc(Br)ccc1NS(=O)(=O)c1ccc(Cl)cc1` [Compound 87] fall in the same range of IC50: 51 to 100 µM for the first, 51 to 100 µM for the second.

Compared with `O=C(Nc1ccccc1Cl)c1cc(Br)ccc1NS(=O)(=O)c1ccc(Cl)cc1` [Compound 86], `O=C(Nc1ccccc1F)c1cc(Br)ccc1NS(=O)(=O)c1ccc(Cl)cc1` [Compound 88] is higher in IC50: 51 to 100 µM for the first, 101 to 500 µM for the second.

`COc1ccccc1NC(=O)c1cc(Br)ccc1NS(=O)(=O)c1ccc(Cl)cc1` [Compound 89] and `O=C(Nc1ccccc1Br)c1cc(Br)ccc1NS(=O)(=O)c1ccc(Cl)cc1` [Compound 90] fall in the same range of IC50: 101 to 500 µM for the first, 101 to 500 µM for the second.

`O=C(Nc1cccc(Br)c1)c1cc(Br)ccc1NS(=O)(=O)c1ccc(Cl)cc1` [Compound 91] and `O=C(Nc1cccc(Cl)c1)c1cc(Br)ccc1NS(=O)(=O)c1ccc(Cl)cc1` [Compound 95] cannot be ordered by IC50: greater than 1500 µM for the first, greater than 1500 µM for the second.

`Cc1c(Cl)cccc1NC(=O)c1cc(Br)ccc1NS(=O)(=O)c1ccc(Cl)cc1` [Compound 93] and `Cc1c(Cl)cccc1NC(=O)c1cc(Br)ccc1NS(=O)(=O)c1ccc(Cl)c([N+](=O)[O-])c1` [Compound 122] cannot be ordered by IC50: greater than 1500 µM for the first, greater than 1500 µM for the second.

`O=C(c1ccc(Cl)cc1)c1cc(NC(=O)c2cc(Br)ccc2NS(=O)(=O)c2ccc(Cl)cc2)ccc1Cl` [Compound 96] and `O=C(Nc1ccc(Cl)cc1)c1cc(Br)ccc1NS(=O)(=O)c1ccc(Cl)cc1` [Compound 97] cannot be ordered by IC50: greater than 1500 µM for the first, greater than 1500 µM for the second.

`COc1ccc(S(=O)(=O)Nc2ccc(Br)cc2C(=O)Nc2cc(Cl)ccc2Cl)cc1[N+](=O)[O-]` [Compound 98] and `COc1ccc(S(=O)(=O)Nc2ccc(Br)cc2C(=O)Nc2ccc(Cl)cc2Cl)cc1[N+](=O)[O-]` [Compound 104] fall in the same range of IC50: 51 to 100 µM for the first, 51 to 100 µM for the second.

`COc1ccc(S(=O)(=O)Nc2ccc(Br)cc2C(=O)Nc2ccccc2Cl)cc1[N+](=O)[O-]` [Compound 99] and `COc1ccc(S(=O)(=O)Nc2ccc(Br)cc2C(=O)Nc2ccccc2F)cc1[N+](=O)[O-]` [Compound 102] fall in the same range of IC50: 51 to 100 µM for the first, 51 to 100 µM for the second.

Compared with `COc1ccc(S(=O)(=O)Nc2ccc(Br)cc2C(=O)Nc2cccc(Cl)c2C)cc1[N+](=O)[O-]` [Compound 100], `COc1ccc(S(=O)(=O)Nc2ccc(Br)cc2C(=O)Nc2ccccc2C)cc1[N+](=O)[O-]` [Compound 108] is higher in IC50: 51 to 100 µM for the first, 101 to 500 µM for the second. The first is the more potent here.

`COc1ccc(S(=O)(=O)Nc2ccc(Br)cc2C(=O)Nc2cccc(Cl)c2)cc1[N+](=O)[O-]` [Compound 101] and `COc1ccc(S(=O)(=O)Nc2ccc(Br)cc2C(=O)Nc2cccc(Br)c2)cc1[N+](=O)[O-]` [Compound 103] fall in the same range of IC50: 51 to 100 µM for the first, 51 to 100 µM for the second.

First: COc1ccc(S(=O)(=O)Nc2ccc(Br)cc2C(=O)Nc2ccccc2Br)cc1[N+](=O)[O-] [Compound 105]
Second: COc1ccccc1NC(=O)c1cc(Br)ccc1NS(=O)(=O)c1ccc(OC)c([N+](=O)[O-])c1 [Compound 106]
The IC50 of the first is lower: 51 to 100 µM for the first, 101 to 500 µM for the second. The first is the more potent here.

`COc1ccc(S(=O)(=O)Nc2ccc(Br)cc2C(=O)Nc2ccccc2C(=O)O)cc1[N+](=O)[O-]` [Compound 107] and `COc1ccccc1NC(=O)c1cc(Br)ccc1NS(=O)(=O)c1ccc(Cl)c([N+](=O)[O-])c1` [Compound 117] fall in the same range of IC50: 101 to 500 µM for the first, 101 to 500 µM for the second.

`O=C(Nc1ccc(Cl)c(Cl)c1)c1cc(Br)ccc1NS(=O)(=O)c1ccc(Cl)c([N+](=O)[O-])c1` [Compound 110] and `O=C(Nc1cc(Cl)ccc1Cl)c1cc(Br)ccc1NS(=O)(=O)c1ccc(Cl)c([N+](=O)[O-])c1` [Compound 111] cannot be ordered by IC50: less than 50 µM for the first, less than 50 µM for the second.

First: O=C(Nc1cc(Cl)ccc1Cl)c1cc(Br)ccc1NS(=O)(=O)c1ccc(Cl)c([N+](=O)[O-])c1 [Compound 112]
Second: O=C(Nc1ccc(Cl)cc1Cl)c1cc(Br)ccc1NS(=O)(=O)c1ccc(Cl)c([N+](=O)[O-])c1 [Compound 120]
The IC50 of the first is lower: less than 50 µM for the first, greater than 1500 µM for the second.

`O=C(Nc1ccc(Cl)c(Cl)c1)c1cc(Br)ccc1NS(=O)(=O)c1ccc(Cl)c([N+](=O)[O-])c1` [Compound 113] and `O=C(Nc1cc(Cl)ccc1Cl)c1cc(Br)ccc1NS(=O)(=O)c1ccc(Cl)c([N+](=O)[O-])c1` [Compound 115] fall in the same range of IC50: 51 to 100 µM for the first, 51 to 100 µM for the second.

First: O=C(Nc1ccccc1Br)c1cc(Br)ccc1NS(=O)(=O)c1ccc(Cl)c([N+](=O)[O-])c1 [Compound 114]
Second: O=C(Nc1ccccc1Cl)c1cc(Br)ccc1NS(=O)(=O)c1ccc(Cl)c([N+](=O)[O-])c1 [Compound 118]
The IC50 of the first is lower: 51 to 100 µM for the first, 101 to 500 µM for the second. The first is the more potent here.

Compared with `O=C(Nc1cccc(Br)c1)c1cc(Br)ccc1NS(=O)(=O)c1ccc(Cl)c([N+](=O)[O-])c1` [Compound 116], `O=C(Nc1cccc(Cl)c1)c1cc(Br)ccc1NS(=O)(=O)c1ccc(Cl)c([N+](=O)[O-])c1` [Compound 123] is higher in IC50: 101 to 500 µM for the first, greater than 1500 µM for the second.

First: NCCCCCCNC(=O)c1cc(Br)ccc1NS(=O)(=O)c1ccc(Cl)c([N+](=O)[O-])c1 [Compound 119]
Second: O=C(Nc1ccccc1F)c1cc(Br)ccc1NS(=O)(=O)c1ccc(Cl)c([N+](=O)[O-])c1 [Compound 124]
The IC50 of the first is lower: 1000 to 1500 µM for the first, greater than 1500 µM for the second.

First: Cc1ccccc1NC(=O)c1cc(Br)ccc1NS(=O)(=O)c1ccc(Cl)c([N+](=O)[O-])c1 [Compound 121]
Second: O=C(Nc1ccc(Cl)c(Cl)c1)c1cc(Br)ccc1NS(=O)(=O)c1cccc([N+](=O)[O-])c1 [Compound 125]
The IC50 of the first is higher: greater than 1500 µM for the first, 101 to 500 µM for the second.

Same assay, conditions: Table 3, 100 μM compound

Compared with `O=S(=O)(Nc1ccc(I)cc1F)c1ccc(OC(F)(F)F)cc1` [Compound 126], `CSc1ccc(NS(=O)(=O)c2ccc(OC(F)(F)F)cc2)cc1` [Compound 128] is lower in “% Inhib. At 100 μM” value: 103% for the first, 88% for the second.

Compared with `O=S(=O)(Nc1cc(Cl)c(Cl)cc1Cl)c1cc(C(F)(F)F)cc(C(F)(F)F)c1` [Compound 127], `O=S(=O)(Nc1ccc(Oc2ccccc2)cc1)c1ccc(OC(F)(F)F)cc1` [Compound 129] is lower in “% Inhib. At 100 μM” value: 101% for the first, 84% for the second.
